The values that follow come from ChEMBL document CHEMBL1201862, “PubChem BioAssay data set” (2004).

Some test systems named below: ACHN; COLO 205; LOX IMVI; MDA-MB-435; MDA-N; NCI-H23; OVCAR-3; OVCAR-5; RXF 393; SF-539; SK-MEL-28; SK-MEL-2; SNB-19; SW-620; U-251; UACC-257; UACC-62; UO-31; SNB-75; KM-20L2.
Experiment in all cases: NCI tumour cell line growth inhibition, 48 h

The structures appear in SMILES notation.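 Grown in 96-well plates, cells were treated for 48 hours with each compound at five concentrations. Insufficient inhibition: endpoint recorded as highest concentration tested. GI50 marks 50% less growth.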 Active and inactive are the calls of the source. No stated cut-off is given here; in the data, active = GI50 up to about 1.1 µM and inactive = higher.

For `Cc1cn(C2CC(O)C(Cn3nncc3Cn3ncc(=O)[nH]c3=O)O2)c(=O)[nH]c1=O` (stereo unspecified), the GI50 with ACHN, with COLO 205, with LOX IMVI, in the experiment on MDA-MB-435, with MDA-N and with NCI-H23 was > 100 µM (inactive) in each case. For the same compound, the GI50 with OVCAR-3, in the experiment on OVCAR-5, in the experiment on RXF 393, in the experiment with SF-539, in the experiment on SK-MEL-28 and in the experiment on SK-MEL-2 was > 100 µM (inactive) in each case. Further, the GI50 in the experiment on SNB-19, in the experiment with SW-620, in the experiment on U-251, in the experiment on UACC-257, in the experiment on UACC-62 and in the experiment with UO-31 was > 100 µM (inactive) in each case.
Consider `N#CCCC1C(C#N)C2(Cl)CC1(Cl)C(Cl)=C2Cl` (stereo unspecified), for which the GI50 in the experiment with ACHN, in the experiment on COLO 205, in the experiment with LOX IMVI, in the experiment on MDA-MB-435, in the experiment with MDA-N and in the experiment with NCI-H23 was > 10 µM (inactive) throughout. Moreover, the GI50 in the experiment on OVCAR-3, in the experiment on OVCAR-5, in the experiment with RXF 393, with SF-539, with SK-MEL-28 and in the experiment with SK-MEL-2 was > 10 µM (inactive) throughout. In addition, the GI50 in the experiment on SNB-19, with SNB-75, with SW-620, in the experiment on U-251, in the experiment with UACC-62 and with UO-31 was > 10 µM (inactive) each time.
Take `CC[N+]1(C)CCC(O)(c2ccc(Cl)cc2)C(C(=O)c2ccc(Cl)cc2)C1` (stereo unspecified): the GI50 with ACHN was 19 µM (inactive); in the experiment on COLO 205, 4.89 µM (inactive); in the experiment with LOX IMVI, 5.58 µM (inactive); in the experiment with MDA-MB-435, 19.8 µM (inactive); in the experiment with MDA-N, 19.1 µM (inactive); in the experiment with NCI-H23, 17.4 µM (inactive). Besides, the GI50 in the experiment on OVCAR-3 is 20.5 µM (inactive); in the experiment with OVCAR-5 it was 19.1 µM (inactive); with RXF 393 it was 14.4 µM (inactive); in the experiment with SK-MEL-28, 16 µM (inactive); with SNB-19, 17.2 µM (inactive); in the experiment with SNB-75 it was > 10 µM (inactive). In addition, the GI50 with SW-620 was 1.82 µM (inactive); in the experiment on U-251, 24.5 µM (inactive); in the experiment with UACC-257, 24.4 µM (inactive); in the experiment on UACC-62 it was 14.7 µM (inactive); in the experiment on UO-31 it was 20.1 µM (inactive).
`CCCCOC(=O)CN1C(=O)c2ccccc2C1=O`: the GI50 in the experiment on ACHN, in the experiment on COLO 205, in the experiment with KM-20L2, with LOX IMVI, in the experiment with NCI-H23 and in the experiment with OVCAR-3 was > 100 µM (inactive) in each case. Further, the GI50 with OVCAR-5, in the experiment on RXF 393, in the experiment on SF-539, in the experiment on SK-MEL-28, in the experiment with SK-MEL-2 and in the experiment with SNB-19 was > 100 µM (inactive) throughout. Moreover, the GI50 in the experiment with SNB-75, in the experiment on SW-620, in the experiment with U-251, with UACC-257, in the experiment with UACC-62 and with UO-31 was > 100 µM (inactive) each time.
Regarding `C=C(C)C1CC2=C(O1)C(=O)c1ccccc1C2=O` (stereo not drawn) [DEHYDROISO-ALPHA-LAPACHONE], the GI50 in the experiment with COLO 205 was 19.3 µM (inactive); in the experiment on LOX IMVI, 9.18 µM (inactive); with NCI-H23 it was 18.9 µM (inactive); with OVCAR-3 it was 18.9 µM (inactive); in the experiment with RXF 393, 18.9 µM (inactive); in the experiment on SF-539, 18.5 µM (inactive). The GI50 in the experiment with SK-MEL-28 was 19 µM (inactive); with SNB-19, 29.8 µM (inactive); in the experiment on SNB-75, 17.6 µM (inactive); with SW-620 it was 23.6 µM (inactive); in the experiment with U-251 it was 16.5 µM (inactive); with UACC-257, 13.3 µM (inactive). Moreover, the GI50 in the experiment with UACC-62 is 16.1 µM (inactive).
For `O=c1n(CC2CO2)c2ccccc2n1CC1CS1` (stereo unspecified), the GI50 was > 100 µM (inactive) with ACHN; > 100 µM (inactive) with COLO 205; > 100 µM (inactive) with KM-20L2; 71 µM (inactive) in the experiment with LOX IMVI; 78.7 µM (inactive) with OVCAR-3; > 100 µM (inactive) in the experiment on OVCAR-5. The GI50 in the experiment with RXF 393 was 57 µM (inactive); in the experiment on SF-539, > 100 µM (inactive); in the experiment with SK-MEL-28, > 100 µM (inactive); in the experiment on SK-MEL-2 it was > 100 µM (inactive); in the experiment on SNB-19, > 100 µM (inactive); in the experiment with SW-620, > 100 µM (inactive). In addition, the GI50 was 49 µM (inactive) in the experiment with UACC-62 and > 100 µM (inactive) in the experiment with UO-31.
For the compound `CCOC(=O)c1csc(NC(=O)CN(C)C)n1`, the GI50 in the experiment with ACHN, in the experiment on COLO 205, with LOX IMVI, in the experiment on MDA-MB-435, with MDA-N and with NCI-H23 was > 100 µM (inactive) each time. In addition, the GI50 with OVCAR-3, with OVCAR-5, in the experiment with RXF 393, in the experiment with SF-539, with SK-MEL-28 and in the experiment on SK-MEL-2 was > 100 µM (inactive) throughout. Besides, the GI50 with SNB-19, in the experiment with SNB-75, with SW-620, in the experiment with U-251, with UACC-257 and in the experiment on UACC-62 was > 100 µM (inactive) in each case. In addition, the GI50 in the experiment with UO-31 was > 100 µM (inactive).
`CN1NC(c2ccccc2)=C(C#N)C(=O)CC1c1ccc(F)cc1` (stereo unspecified): the GI50 in the experiment with ACHN, in the experiment on COLO 205, in the experiment on LOX IMVI, in the experiment on NCI-H23, in the experiment on OVCAR-5 and in the experiment on RXF 393 was > 100 µM (inactive) in each case. In addition, the GI50 in the experiment with SK-MEL-28 was > 100 µM (inactive); in the experiment with SK-MEL-2 it was > 100 µM (inactive); with SNB-19, > 100 µM (inactive); with SNB-75 it was 41.3 µM (inactive); with SW-620, > 100 µM (inactive); with U-251, > 100 µM (inactive). The GI50 in the experiment on UACC-257 was > 100 µM (inactive).
As for `COC(c1ccc(C(C)(C)C)cc1)(c1ccc(C(C)(C)C)cc1)c1cc(C(O)(c2cc(C(OC)(c3ccc(C(C)(C)C)cc3)c3ccc(C(C)(C)C)cc3)c(C)cc2C)c2cc(C(OC)(c3ccc(C(C)(C)C)cc3)c3ccc(C(C)(C)C)cc3)c(C)cc2C)c(C)cc1C`, the GI50 with COLO 205, in the experiment on LOX IMVI, in the experiment on MDA-MB-435, with MDA-N, in the experiment with NCI-H23 and in the experiment on OVCAR-3 was > 100 µM (inactive) throughout. Besides, the GI50 in the experiment on OVCAR-5 was > 100 µM (inactive); in the experiment on RXF 393 it was > 100 µM (inactive); with SF-539, > 100 µM (inactive); in the experiment with SK-MEL-28, > 100 µM (inactive); in the experiment with SK-MEL-2 it was > 100 µM (inactive); with SNB-75, 28.3 µM (inactive). The GI50 in the experiment with SW-620, in the experiment on U-251, in the experiment on UACC-257, with UACC-62 and in the experiment with UO-31 was > 100 µM (inactive) in each case.
`CCOc1ccc(C(C)c2cc3c(cc2OC)OCO3)cc1` (stereo unspecified): the GI50 with ACHN was 0.897 µM (active); in the experiment with KM-20L2 it was 0.199 µM (active); in the experiment with LOX IMVI, 0.259 µM (active); with NCI-H23, 0.267 µM (active); in the experiment on OVCAR-3, 0.221 µM (active); in the experiment on OVCAR-5, 65.5 µM (inactive). For the same compound, the GI50 in the experiment with RXF 393 is 0.222 µM (active); in the experiment with SF-539, 0.271 µM (active); in the experiment with SNB-19 it was 0.561 µM (active); in the experiment with SNB-75, 0.277 µM (active); with SW-620, 0.259 µM (active); in the experiment with U-251 it was 0.38 µM (active). Moreover, the results for the GI50 in the experiment on UACC-257, with UACC-62 and with UO-31 were 0.767 µM (active), 0.376 µM (active) and 0.491 µM (active), respectively.
Take `CC1(C)CCc2cc3c(-c4ccccc4)cc(=O)oc3cc2O1`: the GI50 in the experiment on ACHN, with COLO 205, in the experiment with KM-20L2, in the experiment with LOX IMVI, with NCI-H23 and in the experiment with OVCAR-3 was > 100 µM (inactive) each time. Moreover, the GI50 in the experiment with SF-539 was 38.5 µM (inactive); with SK-MEL-28, > 100 µM (inactive); in the experiment with SK-MEL-2 it was > 100 µM (inactive); in the experiment with SNB-19 it was 87.5 µM (inactive); in the experiment with SNB-75, 13.7 µM (inactive); in the experiment with SW-620, > 100 µM (inactive). For the same compound, the GI50 with U-251, with UACC-62 and in the experiment with UO-31 was > 100 µM (inactive) in each case.
On to `Cc1ccc(Cl)cc1/N=N/C(=O)NNc1cc(Cl)ccc1C`, for which the GI50 is 21.9 µM (inactive) with COLO 205; 25.2 µM (inactive) with MDA-MB-435; 31.8 µM (inactive) in the experiment with MDA-N; 19.4 µM (inactive) with NCI-H23; 14.7 µM (inactive) with OVCAR-3; 15.8 µM (inactive) in the experiment on OVCAR-5. For the same compound, the GI50 with RXF 393 was 21 µM (inactive); in the experiment on SK-MEL-28, 18 µM (inactive); in the experiment on SK-MEL-2, 13.9 µM (inactive); with SNB-19 it was 19.4 µM (inactive); in the experiment on SNB-75 it was 13.1 µM (inactive); in the experiment with U-251, 19.7 µM (inactive). The GI50 is 11.2 µM (inactive) in the experiment on UACC-62 and 14.1 µM (inactive) in the experiment on UO-31.
